Measurements published in the supplement of paper PMC11368000.

Experiments:
Conditions in all cases: exposure time: 90 min
[1] = test system: 1392 (donor line of iPSC-derived cardiomyocytes); test: POD (EC95) for loss of peak frequency (asystole) vs vehicle; higher = less potent (higher point of departure)
Protocol: (§1)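 Human iPSC-derived cardiomyocytes from 16 donors were exposed for 90 min at 37 °C to each PFAS at 0.1, 1, 10 and 100 µM in 0.5% DMSO, 384-well plates. Kinetic Ca2+ flux (FLIPR) and Hoechst nuclei counts were normalised to vehicle wells and fitted with a hierarchical Bayesian Hill model to give donor-specific PODs: EC05 for beat-rate increase or decrease and for decay-to-rise ratio increase (QT proxy), EC95 for peak-frequency loss (asystole), EC10 for total cell number loss. 0.03 µM is the lower bound.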

[2] = test system: 11235 (donor line of iPSC-derived cardiomyocytes); test: as above
Protocol: as §1

[3] = test system: 1531 (donor line of iPSC-derived cardiomyocytes); test: as above
Protocol: as §1

[4] = test system: 1309 (donor line of iPSC-derived cardiomyocytes); test: as above
Protocol: as §1

[5] = test system: 1083 (donor line of iPSC-derived cardiomyocytes); test: as above
Protocol: as §1

[6] = test system: 1516 (donor line of iPSC-derived cardiomyocytes); test: as above
Protocol: as §1

[7] = test system: 1368 (donor line of iPSC-derived cardiomyocytes); test: as above
Protocol: as §1

[8] = test system: 1434 (donor line of iPSC-derived cardiomyocytes); test: as above
Protocol: as §1

[9] = test system: 20032 (donor line of iPSC-derived cardiomyocytes); test: as above
Protocol: as §1

[10] = test system: 30145 (donor line of iPSC-derived cardiomyocytes); test: as above
Protocol: as §1

[11] = test system: 1118 (donor line of iPSC-derived cardiomyocytes); test: as above
Protocol: as §1

[12] = test system: 30171 (donor line of iPSC-derived cardiomyocytes); test: as above
Protocol: as §1

[13] = test system: 1565 (donor line of iPSC-derived cardiomyocytes); test: as above
Protocol: as §1

[14] = test system: 20084 (donor line of iPSC-derived cardiomyocytes); test: as above
Protocol: as §1

[15] = test system: 1535 (donor line of iPSC-derived cardiomyocytes); test: as above
Protocol: as §1

[16] = test system: 1518 (donor line of iPSC-derived cardiomyocytes); test: as above
Protocol: as §1

[17] = test system: 1531; test: POD (EC05) for increase in beat frequency (positive chronotrope) vs vehicle; higher = less potent (higher point of departure)
Summary of the method: (§2)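 Cardiomyocytes derived from human iPSCs of 16 donors were grown 14 days in gelatin-coated 384-well plates, loaded 2 h with a fluorescent Ca2+ dye, then exposed for 90 min at 37 °C to final concentrations of 0.1, 1, 10 and 100 µM in 0.5% DMSO. A FLIPR Tetra recorded Ca2+ flux at 8 frames/s for 100 s before and after exposure. Points of departure for each donor were derived by hierarchical Bayesian Hill fitting of vehicle-normalised beat frequency, decay-to-rise ratio or peak frequency. The thresholds applied were a 5% change, or a 95% loss for peak frequency.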

[18] = test system: 20084; test: as above
Summary of the method: as §2

[19] = test system: 1535; test: as above
Summary of the method: as §2

[20] = test system: 1518; test: as above
Summary of the method: as §2

## NC(=O)C(F)(F)C(F)(F)C(F)(F)C(F)F
[1]
  POD vs vehicle: > 100 µM
[2]
  POD vs vehicle: > 100 µM
[3]
  POD vs vehicle: > 100 µM
[4]
  POD vs vehicle: > 100 µM
[5]
  POD vs vehicle: > 100 µM
[6]
  POD vs vehicle: > 100 µM
[7]
  POD vs vehicle: > 100 µM
[8]
  POD vs vehicle: > 100 µM
[9]
  POD vs vehicle: > 100 µM
[10]
  POD vs vehicle: > 100 µM
[11]
  POD vs vehicle: > 100 µM
[12]
  POD vs vehicle: > 100 µM
[13]
  POD vs vehicle: > 100 µM
[14]
  POD vs vehicle: > 100 µM
[15]
  POD vs vehicle: > 100 µM
[16]
  POD vs vehicle: > 100 µM
[17]
  POD vs vehicle: > 100 µM
[18]
  POD vs vehicle: > 100 µM
[19]
  POD vs vehicle: > 100 µM
[20]
  POD vs vehicle: > 100 µM

## OCC(O)CC(F)(F)C(F)(F)C(F)(F)C(F)(F)C(F)(F)C(F)(F)C(F)(F)C(F)(F)F (stereo not drawn) [1-(Perfluorofluorooctyl)propane-2,3-diol]
[1]
  POD vs vehicle: > 100 µM
[2]
  POD vs vehicle: > 100 µM
[3]
  POD vs vehicle: > 100 µM
[4]
  POD vs vehicle: > 100 µM
[5]
  POD vs vehicle: > 100 µM
[6]
  POD vs vehicle: > 100 µM
[7]
  POD vs vehicle: > 100 µM
[8]
  POD vs vehicle: > 100 µM
[9]
  POD vs vehicle: > 100 µM
[10]
  POD vs vehicle: > 100 µM
[11]
  POD vs vehicle: 1.19 µM
[12]
  POD vs vehicle: > 100 µM
[13]
  POD vs vehicle: > 100 µM
[14]
  POD vs vehicle: > 100 µM
[15]
  POD vs vehicle: > 100 µM
[16]
  POD vs vehicle: > 100 µM
[17]
  POD vs vehicle: > 100 µM
[18]
  POD vs vehicle: > 100 µM
[19]
  POD vs vehicle: > 100 µM
[20]
  POD vs vehicle: > 100 µM

## CC(O)C(F)(F)C(F)(F)F (stereo not drawn) [1-Pentafluoroethylethanol]
[1]
  POD vs vehicle: > 100 µM
[2]
  POD vs vehicle: > 100 µM
[3]
  POD vs vehicle: > 100 µM
[4]
  POD vs vehicle: > 100 µM
[5]
  POD vs vehicle: > 100 µM
[6]
  POD vs vehicle: > 100 µM
[7]
  POD vs vehicle: > 100 µM
[8]
  POD vs vehicle: > 100 µM
[9]
  POD vs vehicle: > 100 µM
[10]
  POD vs vehicle: > 100 µM
[11]
  POD vs vehicle: > 100 µM
[12]
  POD vs vehicle: > 100 µM
[13]
  POD vs vehicle: > 100 µM
[14]
  POD vs vehicle: > 100 µM
[15]
  POD vs vehicle: > 100 µM
[16]
  POD vs vehicle: > 100 µM
[17]
  POD vs vehicle: > 100 µM
[18]
  POD vs vehicle: > 100 µM
[19]
  POD vs vehicle: > 100 µM
[20]
  POD vs vehicle: > 100 µM

## OCC(F)(F)C(F)(F)C(F)(F)C(F)F [1H,1H,5H-Perfluoropentanol]
[1]
  POD vs vehicle: > 100 µM
[2]
  POD vs vehicle: > 100 µM
[3]
  POD vs vehicle: > 100 µM
[4]
  POD vs vehicle: > 100 µM
[5]
  POD vs vehicle: > 100 µM
[6]
  POD vs vehicle: > 100 µM
[7]
  POD vs vehicle: > 100 µM
[8]
  POD vs vehicle: > 100 µM
[9]
  POD vs vehicle: > 100 µM
[10]
  POD vs vehicle: > 100 µM
[11]
  POD vs vehicle: 86.3 µM
[12]
  POD vs vehicle: > 100 µM
[13]
  POD vs vehicle: > 100 µM
[14]
  POD vs vehicle: > 100 µM
[15]
  POD vs vehicle: > 100 µM
[16]
  POD vs vehicle: > 100 µM
[17]
  POD vs vehicle: > 100 µM
[18]
  POD vs vehicle: > 100 µM
[19]
  POD vs vehicle: > 100 µM
[20]
  POD vs vehicle: > 100 µM

## O=S(=O)(OCC(F)(F)F)C(F)(F)C(F)(F)C(F)(F)C(F)(F)F [2,2,2-Trifluoroethyl_perfluorobutanesulfonate]
[1]
  POD vs vehicle: > 100 µM
[2]
  POD vs vehicle: > 100 µM
[3]
  POD vs vehicle: > 100 µM
[4]
  POD vs vehicle: > 100 µM
[5]
  POD vs vehicle: > 100 µM
[6]
  POD vs vehicle: > 100 µM
[7]
  POD vs vehicle: > 100 µM
[8]
  POD vs vehicle: > 100 µM
[9]
  POD vs vehicle: > 100 µM
[10]
  POD vs vehicle: > 100 µM
[11]
  POD vs vehicle: > 100 µM
[12]
  POD vs vehicle: > 100 µM
[13]
  POD vs vehicle: > 100 µM
[14]
  POD vs vehicle: > 100 µM
[15]
  POD vs vehicle: > 100 µM
[16]
  POD vs vehicle: > 100 µM
[17]
  POD vs vehicle: > 100 µM
[18]
  POD vs vehicle: > 100 µM
[19]
  POD vs vehicle: > 100 µM
[20]
  POD vs vehicle: > 100 µM

## O=C(O)C(F)(F)C(F)(F)C(F)F [2,2,3,3,4,4-Hexafluorobutanoic_acid]
[1]
  POD vs vehicle: > 100 µM
[2]
  POD vs vehicle: > 100 µM
[3]
  POD vs vehicle: > 100 µM
[4]
  POD vs vehicle: > 100 µM
[5]
  POD vs vehicle: > 100 µM
[6]
  POD vs vehicle: > 100 µM
[7]
  POD vs vehicle: > 100 µM
[8]
  POD vs vehicle: > 100 µM
[9]
  POD vs vehicle: > 100 µM
[10]
  POD vs vehicle: > 100 µM
[11]
  POD vs vehicle: > 100 µM
[12]
  POD vs vehicle: > 100 µM
[13]
  POD vs vehicle: > 100 µM
[14]
  POD vs vehicle: > 100 µM
[15]
  POD vs vehicle: > 100 µM
[16]
  POD vs vehicle: > 100 µM
[17]
  POD vs vehicle: > 100 µM
[18]
  POD vs vehicle: > 100 µM
[19]
  POD vs vehicle: > 100 µM
[20]
  POD vs vehicle: > 100 µM

## NC(O)(C(F)(F)F)C(F)(F)F [2-Aminohexafluoropropan-2-ol]
[1]
  POD vs vehicle: > 100 µM
[2]
  POD vs vehicle: 72.8 µM
[3]
  POD vs vehicle: > 100 µM
[4]
  POD vs vehicle: > 100 µM
[5]
  POD vs vehicle: > 100 µM
[6]
  POD vs vehicle: > 100 µM
[7]
  POD vs vehicle: > 100 µM
[8]
  POD vs vehicle: > 100 µM
[9]
  POD vs vehicle: > 100 µM
[10]
  POD vs vehicle: > 100 µM
[11]
  POD vs vehicle: > 100 µM
[12]
  POD vs vehicle: > 100 µM
[13]
  POD vs vehicle: > 100 µM
[14]
  POD vs vehicle: > 100 µM
[15]
  POD vs vehicle: > 100 µM
[16]
  POD vs vehicle: > 100 µM
[17]
  POD vs vehicle: > 100 µM
[18]
  POD vs vehicle: > 100 µM
[19]
  POD vs vehicle: > 100 µM
[20]
  POD vs vehicle: > 100 µM

## O=C(O)CCC(F)(F)C(F)(F)C(F)(F)C(F)(F)C(F)(F)F [2H,2H,3H,3H-Perfluorooctanoic_acid]
[1]
  POD vs vehicle: 73 µM
[2]
  POD vs vehicle: 59.9 µM
[3]
  POD vs vehicle: 92.7 µM
[4]
  POD vs vehicle: > 100 µM
[5]
  POD vs vehicle: > 100 µM
[6]
  POD vs vehicle: 75.1 µM
[7]
  POD vs vehicle: > 100 µM
[8]
  POD vs vehicle: 90.8 µM
[9]
  POD vs vehicle: > 100 µM
[10]
  POD vs vehicle: 77.8 µM
[11]
  POD vs vehicle: 67.4 µM
[12]
  POD vs vehicle: 71.8 µM
[13]
  POD vs vehicle: > 100 µM
[14]
  POD vs vehicle: 66.4 µM
[15]
  POD vs vehicle: > 100 µM
[16]
  POD vs vehicle: > 100 µM
[17]
  POD vs vehicle: > 100 µM
[18]
  POD vs vehicle: > 100 µM
[19]
  POD vs vehicle: > 100 µM
[20]
  POD vs vehicle: > 100 µM

## OCC(F)(F)OC(F)(F)C(F)(F)OC(F)(F)C(F)(F)OC(F)(F)F [Fluorinated_triethylene_glycol_monomethyl_ether]
[1]
  POD vs vehicle: > 100 µM
[2]
  POD vs vehicle: > 100 µM
[3]
  POD vs vehicle: > 100 µM
[4]
  POD vs vehicle: > 100 µM
[5]
  POD vs vehicle: > 100 µM
[6]
  POD vs vehicle: > 100 µM
[7]
  POD vs vehicle: > 100 µM
[8]
  POD vs vehicle: > 100 µM
[9]
  POD vs vehicle: > 100 µM
[10]
  POD vs vehicle: > 100 µM
[11]
  POD vs vehicle: 9.61 µM
[12]
  POD vs vehicle: > 100 µM
[13]
  POD vs vehicle: > 100 µM
[14]
  POD vs vehicle: > 100 µM
[15]
  POD vs vehicle: > 100 µM
[16]
  POD vs vehicle: > 100 µM
[17]
  POD vs vehicle: > 100 µM
[18]
  POD vs vehicle: > 100 µM
[19]
  POD vs vehicle: > 100 µM

## CN(CCO)S(=O)(=O)C(F)(F)C(F)(F)C(F)(F)C(F)(F)C(F)(F)C(F)(F)C(F)(F)C(F)(F)F [N-Methyl-N-(2-hydroxyethyl)perfluorooctanesulfonamide]
[1]
  POD vs vehicle: > 100 µM
[2]
  POD vs vehicle: > 100 µM
[3]
  POD vs vehicle: > 100 µM
[4]
  POD vs vehicle: > 100 µM
[5]
  POD vs vehicle: 65 µM
[6]
  POD vs vehicle: > 100 µM
[7]
  POD vs vehicle: > 100 µM
[8]
  POD vs vehicle: > 100 µM
[9]
  POD vs vehicle: > 100 µM
[10]
  POD vs vehicle: > 100 µM
[12]
  POD vs vehicle: 69.7 µM
[13]
  POD vs vehicle: > 100 µM
[14]
  POD vs vehicle: > 100 µM
[15]
  POD vs vehicle: > 100 µM
[16]
  POD vs vehicle: > 100 µM
[17]
  POD vs vehicle: > 100 µM
[18]
  POD vs vehicle: > 100 µM
[19]
  POD vs vehicle: > 100 µM
[20]
  POD vs vehicle: > 100 µM
